Data reported in patent US8378117B2 (priority 2005, dated 2013).
Like-named read-outs stand apart in the source and are kept apart here.

What was measured:
CB2 receptor = target: T1, CB2 receptor (Homo sapiens, UniProt P34972); assay: Binding assay for CB2 agonists or inverse agonists (SK-N-MC membranes, [3H]-CP-55,940); conditions: for IC50: Cannabinoid CB2 Receptor Binding IC50, calculated by linear regression from percent inhibition at various test concentrations
T1 construct: expressed in transfected cells
In short: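 Membranes from SK-N-MC cells stably expressing human CB2 were incubated with radioligand and test compounds for 90 min at 30 °C in Tris-HCl buffer, pH 7.5, with MgCl2, EDTA and fatty-acid-free BSA. Filter-bound radioactivity was counted; IC50 was derived by linear regression of percent inhibition.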

CB1 receptor [1] = target: T2, CB1 receptor (Homo sapiens, UniProt P21554); assay: Modified binding assay, CB1 receptor in CHO cells, [3H]CP 55940; conditions: [3H]CP 55940 0.5 nM, 120 minutes at 37° C.
T2 construct: expressed in transfected cells
Procedure: Additional receptor binding studies were performed with minor modifications as detailed below.
The human CB1 and CB2 receptors were stably expressed in CHO cells as described in Rinaldi-Carmona, M., Calandra, B., Shire, D., Bouaboula, M., Oustric, D., Barth, F., Casellas, P., Ferrara, P. and Le Fur, G. (1996) J. PharmacoL Exp. Ther., 278: 871-878 and Munro, S., Thomas, K. L. and Abu-Shaar, M. (1993) Nature, 365: 61-65, respectively. [^3H]CP 55940 (0.5 nM) was used as the radioligand for the CB1 receptor binding assay. [^3H]WIN 55212 (0.8 nM) was used as the radioligand for the CB2 receptor binding assay. Incubation was carried out for 120 minutes at 37° C.
The specific ligand binding to the receptors is defined as the difference between the total binding and the nonspecific binding determined in the presence of an excess of unlabelled ligand. The results are expressed as a percent of control specific binding ((measured specific binding/control specific binding)×100) obtained in the presence of the test compounds.
The IC50 values (concentration causing a half-maximal inhibition of control specific binding) were determined by non-linear regression analysis of the competition curves generated with mean replicate values using Hill equation curve fitting (where Y=specific binding, D=minimum specific binding, A=maximum specific binding, C=compound concentration, C50=IC50 and nH=slope factor): (Y=D+[(A−D)/(1+(C/C50)^nH)] CB1 and CB2 Receptor Binding Results
For compounds tested, an IC50 binding value was obtained from percent inhibition studies in which various test concentrations were used.

CB1 receptor [2] = target: T2, CB1 receptor; assay: Modified functional cell-based assay (Beta-Glo luminescence), CB1 receptor
Procedure: Additional functional activity studies were performed with minor modifications. Beta galactosidase activity was quantified using the luminescent Beta-Glo Assay System (Promega Corp. Madison, Wis.) and an Orion Microplate Luminometer (Berthold Detection Systems, Oak Ridge, Tenn.). The EC50 values were calculated using GraphPad Prism and a four parameter logistic equation.
The functional activity EC50 value for compounds tested (shown in Table 8) were obtained from studies in which varying compound concentrations were used. With the exception of Cpd 237 (n=3), one sample for each compound was tested.

Male CD-1 mice = assay: Postoperative inflammatory ileus, microscopic myeloperoxidase histological examination; type: in vivo; conditions: Surgical Manipulation, 24 hr post-laparotomy, mean ± SE
Procedure: Male CD-1 mice were anesthetized by inhaled isoflurane and prepared for surgery. The abdomen was shaved of hair and treated with antiseptic solution. The animal was then covered with a surgical drape, leaving the abdomen exposed. A mid-line laparotomy was performed, and the entire small intestine was exteriorized onto the sterile drape. Using two moistened, sterile, cotton-tipped applicators, the small intestine was then gently compressed along its length from the ligament of Treitz to the ileo-cecal junction. The small intestine was then returned to the abdominal cavity and the incision closed by two layers of sutures.
Age-matched mice were randomly assigned to groups (6 animals per group) and injected intraperitoneally (i.p.) with “vehicle” (a mixture of 5% ethanol/5% Tween80/90% of 5% dextran in water w/v) containing various doses of a test compound 1 hr prior to laparotomy. The second group was injected intraperitoneally with vehicle. The third group was administered intragastrically (1 mg/kg) a mixture (1 mg/mL) of dexamethasone in 20% hydroxypropyl methyl dextran in water, once per day for two days prior to surgery and 5 hrs post-laparotomy. The fourth group received no intervention and served as naïve controls.
Microscopic histological examination was performed on harvested tissues 24 hr post-laparotomy. […] Hanker-Yates reagent (Polysciences Inc.) forms an insoluble, blue-black polymer in the presence of hydrogen peroxide and peroxidase enzyme activity. Segments of mid small bowel were collected from the centrifuge tubes described in the previous section. Whole mounts of the muscle layer were prepared by opening the tube of bowel along the mesenteric border and pinning the tissue flat in a Sylgard™ lined Petri dish with the mucosal surface facing upward. The tissue was stretched to 1.5 times its length and 2.5 times its width, and the mucosa removed by fine dissection. The remaining muscularis whole mounts were then fixed with 100% ethanol for 45 min, washed 3 times with PBS, and incubated for 20 min in PBS containing 0.1% hydrogen peroxide and 1 mg/ml Hanker-Yates reagent (Polysciences, Inc). The reagent is polymerized in the presence of hydrogen peroxide and peroxidase activity to form a blue-black deposit. Following a second wash with PBS, the whole mounts were mounted on glass slides, cover-slipped, and viewed on an optical microscope. Myeloperoxidase containing leukocytes were counted in 6 to 8 adjacent 200× optical fields, and the mean cell counts were calculated and recorded.
The presence of myeloperoxidase (MPO) positive immune cells in the intestinal muscularis is rare in normal animals.

[3] = CB1 EC50 (Receptor Functional Activity), one sample per compound, Cpd 237 n=3

T2 sequence (P21554 whole entry): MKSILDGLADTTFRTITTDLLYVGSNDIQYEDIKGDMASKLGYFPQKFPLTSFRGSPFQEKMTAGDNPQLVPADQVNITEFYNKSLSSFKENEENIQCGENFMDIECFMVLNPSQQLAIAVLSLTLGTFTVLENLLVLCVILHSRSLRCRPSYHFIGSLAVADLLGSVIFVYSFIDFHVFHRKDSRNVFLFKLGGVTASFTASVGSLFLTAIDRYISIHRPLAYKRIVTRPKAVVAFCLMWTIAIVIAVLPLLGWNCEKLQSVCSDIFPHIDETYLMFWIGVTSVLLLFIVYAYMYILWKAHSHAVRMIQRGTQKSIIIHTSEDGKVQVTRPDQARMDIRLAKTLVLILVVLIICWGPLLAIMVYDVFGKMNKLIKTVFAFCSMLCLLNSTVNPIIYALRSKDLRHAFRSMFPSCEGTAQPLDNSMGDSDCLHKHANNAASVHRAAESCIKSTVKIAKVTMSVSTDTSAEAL
T1 sequence (P34972 whole entry): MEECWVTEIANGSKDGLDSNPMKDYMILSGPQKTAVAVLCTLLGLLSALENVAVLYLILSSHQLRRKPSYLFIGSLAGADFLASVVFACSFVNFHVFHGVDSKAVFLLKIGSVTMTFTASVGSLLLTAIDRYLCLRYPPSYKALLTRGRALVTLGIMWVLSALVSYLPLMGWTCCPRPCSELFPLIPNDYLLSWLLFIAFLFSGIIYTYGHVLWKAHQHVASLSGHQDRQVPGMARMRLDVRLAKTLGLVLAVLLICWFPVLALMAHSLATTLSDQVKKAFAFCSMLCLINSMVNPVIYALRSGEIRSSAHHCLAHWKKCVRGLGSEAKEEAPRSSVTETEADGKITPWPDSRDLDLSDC

Structure (SMILES) | IC50 (CB2 receptor) [nM] | IC50 (CB1 receptor [1]) [nM] | EC50 (CB1 receptor [2]; [3]) [nM] | EC50 (CB1 receptor [2]; read-out: CB1 EC50 (Receptor Functional Activity), one sample per compound, Cpd 237 n=3) [nM] | CB2 receptor binding percent inhibition (CB2 receptor; test concentration 0.2 μM (footnote 2), 0.2 µM) [%] | MPO-Positive Cells (Per 200× Optical Field) (Male CD-1 mice; dose 10 mg/kg) | MPO-Positive Cells (Per 200× Optical Field) (Male CD-1 mice; dose 30 mg/kg) | inhibition at 0.2 µM (CB2 receptor; test concentration 0.2 μM (footnote 2), read-out: CB2 receptor binding percent inhibition) [%] | MPO-Positive Cells (Per 200× Optical Field) (Male CD-1 mice; dose 1 mg/kg) | MPO-Positive Cells (Per 200× Optical Field) (Male CD-1 mice; dose 3 mg/kg)
O=C(N[C@H](CO)c1ccccc1)c1n[nH]c2c1CCCCC2Cc1cccc(Cl)c1 (single isomer, unassigned) [Cpd 230, (8R*)-8-(3-chloro-benzyl)-1,4,5,6,7,8-hexahydro-cycloheptapyrazole-3-carboxylic acid [(1S)-2-hydroxy-1-phenyl-ethyl]-amide] | 40 | 370 | > 1000 | – | – | – | – | – | – | –
O=C(N[C@H](CO)c1ccccc1)c1n[nH]c2c1CCCCC2Cc1cccc(Cl)c1 (single isomer, unassigned) [Cpd 231, (8S*)-8-(3-chloro-benzyl)-1,4,5,6,7,8-hexahydro-cycloheptapyrazole-3-carboxylic acid [(1S)-2-hydroxy-1-phenyl-ethyl]-amide] | 200 | > 3000 | – | > 1000 | – | – | – | – | – | –
C[C@H](NS(=O)(=O)/C=C/c1n[nH]c2c1CCCCC2Cc1cccc(F)c1)c1ccccc1 (single isomer, unassigned) [Cpd 232, (2E)-2-[(8R*)-8-(3-fluoro-benzyl)-1,4,5,6,7,8-hexahydro-cycloheptapyrazol-3-yl]-ethenesulfonic acid [(1S)-1-phenyl-ethyl]-amide] | 60 | – | ~3200 | – | 81 | 127.6 ± 25.7 | 60.2 ± 20.8 | – | – | –
C[C@H](NS(=O)(=O)/C=C/c1n[nH]c2c1CCCC/C2=C\c1ccc(Cl)cc1)c1ccccc1 [Cpd 237, (2E,8E)-2-[8-(4-chloro-benzylidene)-1,4,5,6,7,8-hexahydro-cycloheptapyrazol-3-yl]-ethenesulfonic acid [(1S)-1-phenyl-ethyl]-amide] | 100 | > 3000 | 3600 | – | – | 77.7 ± 25.7 | 60.3 ± 20.9 | 64 | 57.8 ± 17.0 | 41.3 ± 9.4
